Values of other authors as cited in patent US11610144B2, “Biosignature discovery for substance use disorder using statistical learning” (BioRealm LLC, priority 2018, dated 2023).
“Also recorded” adds a separate entry of the source.

Key:
smokers = conditions: meta-analyses of RCTs
[1] = tested on: smokers, slow and normal nicotine metabolizers; conditions: NMR from direct biochemical measurement

Compound | smoking cessation efficacy compared with placebo (smokers) | response to treatment, VAR versus NRT [1]
CC(NC(C)(C)C)C(=O)c1cccc(Cl)c1 (stereo not drawn) [BUP, bupropion] | significantly more effective than placebo | –
c1cnc2cc3c(cc2n1)[C@@H]1CNC[C@H]3C1 [VAR, varenicline] | significantly more effective than placebo | responded significantly better than those randomized to NRT; also recorded: responded significantly better to VAR than to NRT
